Assay results: PubChem BioAssay (NCI)
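Tested at 5 concentrations; 48 h exposure; 96-well plates; endpoints linearly interpolated, else capped at highest concentration. TGI is the concentration that stops growth completely.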

Legend:
Experiment in all cases: NCI tumour cell line growth inhibition, 48 h
NCI/ADR-RES ovarian = test system: NCI/ADR-RES ovarian
SNB-19 CNS = test system: SNB-19 CNS
EKVX NSCLC = test system: EKVX NSCLC
A549 NSCLC = test system: A549 NSCLC
MDA-N = test system: MDA-N
MDA-MB-435 = test system: MDA-MB-435
T-47D breast = test system: T-47D breast
DU-145 prostate = test system: DU-145 prostate
SNB-75 CNS = test system: SNB-75 CNS
ACHN renal = test system: ACHN renal
SK-OV-3 ovarian = test system: SK-OV-3 ovarian
RPMI-8226 leukemia = test system: RPMI-8226 leukemia
OVCAR-4 ovarian = test system: OVCAR-4 ovarian
786-0 renal = test system: 786-0 renal
OVCAR-5 ovarian = test system: OVCAR-5 ovarian
HCC-2998 colon = test system: HCC-2998 colon
SW-620 colon = test system: SW-620 colon
SF-268 CNS = test system: SF-268 CNS
BT-549 breast = test system: BT-549 breast
UACC-257 melanoma = test system: UACC-257 melanoma
MDA-MB-231 breast = test system: MDA-MB-231 breast
CAKI-1 renal = test system: CAKI-1 renal
SK-MEL-28 melanoma = test system: SK-MEL-28 melanoma
OVCAR-3 ovarian = test system: OVCAR-3 ovarian
CCRF-CEM leukemia = test system: CCRF-CEM leukemia
MCF7 breast = test system: MCF7 breast
HS 578T breast = test system: HS 578T breast
LOX IMVI melanoma = test system: LOX IMVI melanoma
HOP-92 NSCLC = test system: HOP-92 NSCLC
COLO 205 colon = test system: COLO 205 colon
OVCAR-8 ovarian = test system: OVCAR-8 ovarian
TK-10 renal = test system: TK-10 renal
HCT-15 colon = test system: HCT-15 colon
MOLT-4 leukemia = test system: MOLT-4 leukemia
UACC-62 melanoma = test system: UACC-62 melanoma
K-562 leukemia = test system: K-562 leukemia
HL-60(TB) leukemia = test system: HL-60(TB) leukemia
NCI-H460 lung = test system: NCI-H460 lung
NCI-H23 lung = test system: NCI-H23 lung
M14 melanoma = test system: M14 melanoma
UO-31 renal = test system: UO-31 renal
HOP-62 NSCLC = test system: HOP-62 NSCLC
SF-295 CNS = test system: SF-295 CNS
NCI-H522 lung = test system: NCI-H522 lung
NCI-H226 lung = test system: NCI-H226 lung
A498 renal = test system: A498 renal
RXF 393 renal = test system: RXF 393 renal
HCT-116 colon = test system: HCT-116 colon
U251 CNS = test system: U251 CNS
SK-MEL-2 melanoma = test system: SK-MEL-2 melanoma
SK-MEL-5 melanoma = test system: SK-MEL-5 melanoma
PC-3 prostate = test system: PC-3 prostate
HT29 colon = test system: HT29 colon
IGROV1 ovarian = test system: IGROV1 ovarian
SN12C renal = test system: SN12C renal
SR leukemia = test system: SR leukemia
KM12 colon = test system: KM12 colon
MALME-3M melanoma = test system: MALME-3M melanoma
SF-539 CNS = test system: SF-539 CNS

In the case of `CC(=O)O[C@H]1[C@@H](OC2CCCC2(c2ccccc2)c2ccccc2)O[N+]([O-])=C[C@@H]1c1ccccc1` (stereo not given in full), the TGI (NCI/ADR-RES ovarian) is reported as 12.9 µM, the TGI (SNB-19 CNS) is reported as 29.7 µM and the TGI (EKVX NSCLC) is reported as 30.4 µM. The TGI (A549 NSCLC) was 30.9 µM, the TGI (MDA-N) was 15.6 µM and the TGI (MDA-MB-435) was 11.3 µM. The TGI (T-47D breast) was greater than 37.9 µM, the TGI (DU-145 prostate) was 23.7 µM and the TGI (SNB-75 CNS) was 18 µM. It also gave a TGI (ACHN renal) of 12.5 µM, a TGI (SK-OV-3 ovarian) of 29 µM and a TGI (RPMI-8226 leukemia) of 18.9 µM. For the same compound, the TGI (OVCAR-4 ovarian) was 21.4 µM, the TGI (786-0 renal) was 3.26 µM and the TGI (OVCAR-5 ovarian) was 35.6 µM. The TGI (HCC-2998 colon) was 27.2 µM, the TGI (SW-620 colon) was 17.6 µM and the TGI (SF-268 CNS) was 13.4 µM. The TGI (BT-549 breast) was 17.5 µM, the TGI (UACC-257 melanoma) was 23.6 µM and the TGI (MDA-MB-231 breast) was 40.9 µM. For the same compound, the TGI (CAKI-1 renal) was 11 µM, the TGI (SK-MEL-28 melanoma) was 8.65 µM and the TGI (OVCAR-3 ovarian) was 21 µM. For the same compound, the TGI (CCRF-CEM leukemia) was 14 µM, the TGI (MCF7 breast) was 11.3 µM and the TGI (HS 578T breast) was 20.5 µM. The TGI (LOX IMVI melanoma) was 5.04 µM, the TGI (HOP-92 NSCLC) was 18.2 µM and the TGI (COLO 205 colon) was greater than 46 µM. For the same compound, the TGI (OVCAR-8 ovarian) was 6.53 µM, the TGI (TK-10 renal) was 23.2 µM and the TGI (HCT-15 colon) was 16.7 µM. It also gave a TGI (MOLT-4 leukemia) of 7.54 µM, a TGI (UACC-62 melanoma) of 15.7 µM and a TGI (K-562 leukemia) greater than 32.9 µM. It also gave a TGI (HL-60(TB) leukemia) of 5.71 µM, a TGI (NCI-H460 lung) of 60.2 µM and a TGI (NCI-H23 lung) of 35.9 µM. For the same compound, the TGI (M14 melanoma) was 18.5 µM, the TGI (UO-31 renal) was 23.6 µM and the TGI (HOP-62 NSCLC) was 38.2 µM. For the same compound, the TGI (SF-295 CNS) was 21.7 µM, the TGI (NCI-H522 lung) was 2.62 µM and the TGI (NCI-H226 lung) was 80.2 µM. The TGI (A498 renal) was 23.4 µM, the TGI (RXF 393 renal) was 8.48 µM and the TGI (HCT-116 colon) was 10.5 µM. It also gave a TGI (U251 CNS) of 27.3 µM, a TGI (SK-MEL-2 melanoma) of 24.1 µM and a TGI (SK-MEL-5 melanoma) of 25.6 µM. The TGI (PC-3 prostate) was 21.2 µM, the TGI (HT29 colon) was 6.94 µM and the TGI (IGROV1 ovarian) was 7.61 µM. For the same compound, the TGI (SN12C renal) was 16.9 µM, the TGI (SR leukemia) was greater than 20.3 µM and the TGI (KM12 colon) was 23.4 µM.

For `O=C(Cc1csc2[n+]1C(=O)/C(=C/c1ccc(Cl)cc1)S2)Nc1ccccc1`, the TGI (NCI/ADR-RES ovarian) was 82.4 µM, the TGI (SNB-19 CNS) was greater than 100 µM and the TGI (EKVX NSCLC) was 53.4 µM. For the same compound, the TGI (A549 NSCLC) was 84.6 µM, the TGI (MDA-N) was greater than 100 µM and the TGI (MALME-3M melanoma) was 90.6 µM. It also gave a TGI (MDA-MB-435) of 95 µM, a TGI (T-47D breast) greater than 100 µM and a TGI (DU-145 prostate) greater than 100 µM. It also gave a TGI (SNB-75 CNS) of 94.6 µM, a TGI (ACHN renal) of 61.6 µM and a TGI (SK-OV-3 ovarian) of 99.5 µM. The TGI (RPMI-8226 leukemia) was greater than 100 µM, the TGI (OVCAR-4 ovarian) was greater than 100 µM and the TGI (786-0 renal) was 90.9 µM. The TGI (OVCAR-5 ovarian) was 80.9 µM, the TGI (HCC-2998 colon) was 39.3 µM and the TGI (SW-620 colon) was greater than 100 µM. It also gave a TGI (SF-268 CNS) of 78 µM, a TGI (BT-549 breast) of 60.3 µM and a TGI (UACC-257 melanoma) of 58.3 µM. The TGI (MDA-MB-231 breast) was 37.3 µM, the TGI (CAKI-1 renal) was greater than 100 µM and the TGI (SK-MEL-28 melanoma) was greater than 100 µM. The TGI (OVCAR-3 ovarian) was 27.7 µM, the TGI (CCRF-CEM leukemia) was greater than 100 µM and the TGI (MCF7 breast) was 66.1 µM. The TGI (HS 578T breast) was greater than 100 µM, the TGI (LOX IMVI melanoma) was 34.4 µM and the TGI (HOP-92 NSCLC) was 78.4 µM. For the same compound, the TGI (COLO 205 colon) was 30.2 µM, the TGI (OVCAR-8 ovarian) was greater than 100 µM and the TGI (TK-10 renal) was 87.7 µM. For the same compound, the TGI (HCT-15 colon) was 90.6 µM, the TGI (UACC-62 melanoma) was 32 µM and the TGI (K-562 leukemia) was greater than 100 µM. The TGI (HL-60(TB) leukemia) was 74.2 µM, the TGI (NCI-H460 lung) was 48.8 µM and the TGI (NCI-H23 lung) was 91.3 µM. It also gave a TGI (M14 melanoma) greater than 100 µM, a TGI (UO-31 renal) greater than 100 µM and a TGI (HOP-62 NSCLC) of 30.4 µM. It also gave a TGI (SF-295 CNS) greater than 100 µM, a TGI (NCI-H522 lung) of 40.5 µM and a TGI (NCI-H226 lung) of 49.6 µM. For the same compound, the TGI (A498 renal) was 40.1 µM, the TGI (RXF 393 renal) was 42.6 µM and the TGI (HCT-116 colon) was 42.5 µM. For the same compound, the TGI (U251 CNS) was 32.1 µM, the TGI (SK-MEL-2 melanoma) was 37 µM and the TGI (SK-MEL-5 melanoma) was 26.6 µM. The TGI (PC-3 prostate) was 41.3 µM, the TGI (SF-539 CNS) was 84.2 µM and the TGI (HT29 colon) was 76.1 µM. For the same compound, the TGI (IGROV1 ovarian) was greater than 100 µM, the TGI (SN12C renal) was greater than 100 µM and the TGI (SR leukemia) was greater than 100 µM. The TGI (KM12 colon) was 82.8 µM.
